Assay results: PMC5218480 (PLoS ONE, 2017)

System: MV-4-11 cells
Assay: Gene expression microarray analysis (Affymetrix PrimeView) and GSEA
Assay type: cell-based, human
Design: RFU PODN (11730768_x_at) / Fold change /veh PODN (11730768_x_at) / RFU LINC00158 (11744669_a_at) / Fold change /veh LINC00158 (11744669_a_at) / RFU DUSP10 (11751237_a_at) / Fold change /veh DUSP10 (11751237_a_at) / RFU ID3 (11757404_x_at) / Fold change /veh ID3 (11757404_x_at) / RFU PLEKHG5 (11737974_s_at) / Fold change /veh PLEKHG5 (11737974_s_at) / RFU LRRC4B (11730491_at) / Fold change /veh LRRC4B (11730491_at) / RFU GIMAP4 (11747438_a_at) / Fold change /veh GIMAP4 (11747438_a_at) / RFU KRT8 (11758183_x_at) / Fold change /veh KRT8 (11758183_x_at) / RFU CNN1 (11734310_a_at) / Fold change /veh CNN1 (11734310_a_at) / RFU VPS37D (11726825_at) / Fold change /veh VPS37D (11726825_at) / RFU C10orf10 (11716522_x_at) / Fold change /veh C10orf10 (11716522_x_at) / RFU KIR2DL2 /// KIR2DL4 /// KIR2DL5A /// KIR2DL5B /// KIR2DS1 /// KIR2DS2 /// KIR2DS3 /// KIR2DS4 /// KIR3DL3 /// KIR3DL3 /// KIR3DS1 (11738374_at) / Fold change /veh KIR2DL2 /// KIR2DL4 /// KIR2DL5A /// KIR2DL5B /// KIR2DS1 /// KIR2DS2 /// KIR2DS3 /// KIR2DS4 /// KIR3DL3 /// KIR3DL3 /// KIR3DS1 (11738374_at) / RFU C1QL1 (11718748_at) / Fold change /veh C1QL1 (11718748_at) / RFU TMPRSS4 (11747572_a_at) / Fold change /veh TMPRSS4 (11747572_a_at) / RFU HAMP (11756126_x_at) / Fold change /veh HAMP (11756126_x_at) / RFU RNFT2 (11725882_a_at) / Fold change /veh RNFT2 (11725882_a_at) / RFU NR4A2 (11747474_a_at) / Fold change /veh NR4A2 (11747474_a_at) / RFU ABCC12 (11746883_a_at) / Fold change /veh ABCC12 (11746883_a_at) / RFU TMEM136 (11760407_x_at) / Fold change /veh TMEM136 (11760407_x_at) / RFU CLDN22 /// WWC2 (11732394_at) / Fold change /veh CLDN22 /// WWC2 (11732394_at) / RFU HLA-DPB1 (11760878_x_at) / Fold change /veh HLA-DPB1 (11760878_x_at) / RFU SPINT1 (11716480_a_at) / Fold change /veh SPINT1 (11716480_a_at) / RFU GAP43 (11754022_s_at) / Fold change /veh GAP43 (11754022_s_at) / RFU A4GNT (11735810_at) / Fold change /veh A4GNT (11735810_at) / RFU PRB3 (11715151_x_at) / Fold change /veh PRB3 (11715151_x_at) / RFU TUBB4B (11761932_at) / Fold change /veh TUBB4B (11761932_at) / RFU CAPN14 (11732068_a_at) / Fold change /veh CAPN14 (11732068_a_at) / RFU TMCC2 (11721928_a_at) / Fold change /veh TMCC2 (11721928_a_at) / RFU IRGQ (11745062_a_at) / Fold change /veh IRGQ (11745062_a_at) / RFU FAM174B (11720279_a_at) / Fold change /veh FAM174B (11720279_a_at) / RFU TMPRSS4 (11748680_a_at) / Fold change /veh TMPRSS4 (11748680_a_at) / RFU FAM212B (11763350_a_at) / Fold change /veh FAM212B (11763350_a_at) / RFU PLEKHG5 (11743358_a_at) / Fold change /veh PLEKHG5 (11743358_a_at) / RFU ZSCAN30 (11745921_a_at) / Fold change /veh ZSCAN30 (11745921_a_at) / RFU CMKLR1 (11741424_a_at) / Fold change /veh CMKLR1 (11741424_a_at) / RFU LOC101060620 /// MAPK8IP1 (11723275_at) / Fold change /veh LOC101060620 /// MAPK8IP1 (11723275_at) / RFU SPTSSB (11747773_x_at) / Fold change /veh SPTSSB (11747773_x_at) / RFU PRSS12 (11739890_at) / Fold change /veh PRSS12 (11739890_at) / RFU BIN1 (11741810_x_at) / Fold change /veh BIN1 (11741810_x_at) / RFU WNT11 (11732464_a_at) / Fold change /veh WNT11 (11732464_a_at) / RFU C10orf10 (11716521_a_at) / Fold change /veh C10orf10 (11716521_a_at) / RFU C5orf56 (11738089_at) / Fold change /veh C5orf56 (11738089_at) / RFU CYB561 (11721691_x_at) / Fold change /veh CYB561 (11721691_x_at) / RFU ANKRD19P (11752326_a_at) / Fold change /veh ANKRD19P (11752326_a_at) / RFU OR2T12 /// OR2T33 /// OR2T8 (11738714_s_at) / Fold change /veh OR2T12 /// OR2T33 /// OR2T8 (11738714_s_at) / RFU VCAN (11748164_a_at) / Fold change /veh VCAN (11748164_a_at) / RFU JSRP1 (11732532_at) / Fold change /veh JSRP1 (11732532_at) / RFU KRTAP10-11 (11738290_x_at) / Fold change /veh KRTAP10-11 (11738290_x_at) / RFU MYO3A (11730013_a_at) / Fold change /veh MYO3A (11730013_a_at) / RFU EBF3 (11725865_a_at) / Fold change /veh EBF3 (11725865_a_at) / RFU CAMK2N1 (11719241_x_at) / Fold change /veh CAMK2N1 (11719241_x_at) / RFU C5orf56 (11738088_a_at) / Fold change /veh C5orf56 (11738088_a_at) / RFU OLFML3 (11715873_a_at) / Fold change /veh OLFML3 (11715873_a_at) / RFU LOC100653217 /// NTM (11731650_a_at) / Fold change /veh LOC100653217 /// NTM (11731650_a_at) / RFU MAPK11 (11762145_a_at) / Fold change /veh MAPK11 (11762145_a_at) / RFU FIZ1 (11724087_x_at) / Fold change /veh FIZ1 (11724087_x_at) / RFU OASL (11726364_x_at) / Fold change /veh OASL (11726364_x_at) / RFU SOX15 (11748057_x_at) / Fold change /veh SOX15 (11748057_x_at) / RFU CD79A (11719716_a_at) / Fold change /veh CD79A (11719716_a_at) / RFU HIST1H1D (11736915_at) / Fold change /veh HIST1H1D (11736915_at) / RFU CASKIN2 (11723855_a_at) / Fold change /veh CASKIN2 (11723855_a_at) / RFU LOC730098 (11760151_x_at) / Fold change /veh LOC730098 (11760151_x_at) / RFU OR4N2 (11742367_at) / Fold change /veh OR4N2 (11742367_at) / RFU PRRT2 (11749266_a_at) / Fold change /veh PRRT2 (11749266_a_at) / RFU SNX32 (11753110_a_at) / Fold change /veh SNX32 (11753110_a_at) / RFU CDHR5 (11726645_a_at) / Fold change /veh CDHR5 (11726645_a_at) / RFU RCAN1 (11760418_a_at) / Fold change /veh RCAN1 (11760418_a_at) / RFU FAM167A (11723789_a_at) / Fold change /veh FAM167A (11723789_a_at) / RFU FAM26E (11764081_at) / Fold change /veh FAM26E (11764081_at) / RFU ISYNA1 (11749810_s_at) / Fold change /veh ISYNA1 (11749810_s_at) / RFU ACY1 (11761880_at) / Fold change /veh ACY1 (11761880_at) / RFU 11764098_at / Fold change /veh 11764098_at / RFU SAMD14 (11745864_x_at) / Fold change /veh SAMD14 (11745864_x_at) / RFU NPB (11741838_a_at) / Fold change /veh NPB (11741838_a_at) / RFU TMPRSS6 (11731388_a_at) / Fold change /veh TMPRSS6 (11731388_a_at) / RFU KRTAP10-2 (11738614_at) / Fold change /veh KRTAP10-2 (11738614_at) / RFU ARHGAP8 /// PRR5-ARHGAP8 (11727945_x_at) / Fold change /veh ARHGAP8 /// PRR5-ARHGAP8 (11727945_x_at) / RFU KRTAP5-7 /// NADSYN1 (11734609_at) / Fold change /veh KRTAP5-7 /// NADSYN1 (11734609_at) / RFU RASL12 (11751679_a_at) / Fold change /veh RASL12 (11751679_a_at) / RFU CDKN2B (11736163_a_at) / Fold change /veh CDKN2B (11736163_a_at) / RFU PRF1 (11729649_at) / Fold change /veh PRF1 (11729649_at) / RFU, ZNF638 /// ZNF638-IT1 / Fold change vs veh, ZNF638 /// ZNF638-IT1 / RFU, PANK3 / Fold change vs veh, PANK3 / RFU, SH3YL1 / Fold change vs veh, SH3YL1 / RFU, ZEB2 / Fold change vs veh, ZEB2 / RFU, NRIP1 / Fold change vs veh, NRIP1 / RFU, PTTG1IP / Fold change vs veh, PTTG1IP / RFU, CAPN2 / Fold change vs veh, CAPN2 / RFU, MED14 / Fold change vs veh, MED14 / RFU, SNORA58 / Fold change vs veh, SNORA58 / RFU, C1orf63 / Fold change vs veh, C1orf63 / RFU, LRRFIP1 / Fold change vs veh, LRRFIP1 / RFU, NDUFAF7 / Fold change vs veh, NDUFAF7 / RFU, SLC12A2 / Fold change vs veh, SLC12A2 / RFU, IBTK / Fold change vs veh, IBTK / RFU, ESF1 / Fold change vs veh, ESF1 / Fold change vs veh, TMEM50B / RFU, TAOK1 / Fold change vs veh, TAOK1 / RFU, ACBD3 / Fold change vs veh, ACBD3 / RFU, TMA16 / Fold change vs veh, TMA16 / RFU, RWDD3 / Fold change vs veh, RWDD3 / RFU, BCAT1 / Fold change vs veh, BCAT1 / RFU, EDEM3 / Fold change vs veh, EDEM3 / RFU, TMEM33 / Fold change vs veh, TMEM33 / RFU, WDR75 / Fold change vs veh, WDR75 / RFU, AHCTF1 / Fold change vs veh, AHCTF1 / RFU, TFRC / Fold change vs veh, TFRC / RFU, ZDHHC17 / Fold change vs veh, ZDHHC17 / RFU, NOM1 / Fold change vs veh, NOM1 / RFU, ARL8B / Fold change vs veh, ARL8B / RFU, ZBTB11 / Fold change vs veh, ZBTB11 / RFU, TAMM41 / Fold change vs veh, TAMM41 / RFU, KIAA1704 /// LOC100996395 / Fold change vs veh, KIAA1704 /// LOC100996395 / RFU, ING1 / Fold change vs veh, ING1 / RFU, TRMT61B / Fold change vs veh, TRMT61B / RFU, FUBP3 / Fold change vs veh, FUBP3 / RFU, TP53 / Fold change vs veh, TP53 / RFU, TNKS2 / Fold change vs veh, TNKS2 / RFU, ZFP14 / Fold change vs veh, ZFP14 / RFU, ACTR2 / Fold change vs veh, ACTR2 / RFU, PPP3R1 / Fold change vs veh, PPP3R1 / RFU, PIK3R1 / Fold change vs veh, PIK3R1 / RFU, HNRNPA1 / Fold change vs veh, HNRNPA1 / RFU, RNF170 / Fold change vs veh, RNF170 / RFU, ZNF28 / Fold change vs veh, ZNF28 / RFU, RNGTT / Fold change vs veh, RNGTT / RFU, OGT / Fold change vs veh, OGT / RFU, BRD1 / Fold change vs veh, BRD1 / RFU, MARS / Fold change vs veh, MARS / RFU, ZNF655 / Fold change vs veh, ZNF655 / RFU, FAHD1 / Fold change vs veh, FAHD1 / RFU, BDP1 / Fold change vs veh, BDP1 / RFU, LRRCC1 / Fold change vs veh, LRRCC1 / RFU, ARID1A / Fold change vs veh, ARID1A / RFU, ZNF146 / Fold change vs veh, ZNF146 / RFU, ZNF330 / Fold change vs veh, ZNF330 / RFU, GPN3 / Fold change vs veh, GPN3 / RFU, C9orf123 / Fold change vs veh, C9orf123 / RFU, N4BP2L2 / Fold change vs veh, N4BP2L2 / RFU, ARFIP1 / Fold change vs veh, ARFIP1 / RFU, FAM179B / Fold change vs veh, FAM179B / RFU, BCL10 / Fold change vs veh, BCL10 / RFU, UHRF1BP1L / Fold change vs veh, UHRF1BP1L / RFU, BET1 / Fold change vs veh, BET1 / RFU, CNOT2 / Fold change vs veh, CNOT2 / RFU, ZNF268 / Fold change vs veh, ZNF268 / Fold change vs veh, ZNF507 / RFU, DGCR2 / Fold change vs veh, DGCR2 / RFU, WDSUB1 / Fold change vs veh, WDSUB1 / Fold change vs veh, HSP90B1 /// MIR3652 / RFU, ADSS / Fold change vs veh, ADSS / RFU, GK / Fold change vs veh, GK / RFU, ZNF148 / Fold change vs veh, ZNF148 / RFU, TAF9 / Fold change vs veh, TAF9 / RFU, SLC1A5 / Fold change vs veh, SLC1A5 / RFU, SLMO2 / Fold change vs veh, SLMO2 / RFU, ABCC4 / Fold change vs veh, ABCC4 / RFU, LOC101060439 /// RAP1B / Fold change vs veh, LOC101060439 /// RAP1B / RFU, RFX7 / Fold change vs veh, RFX7 / RFU, GTPBP10 / Fold change vs veh, GTPBP10 / RFU, CNEP1R1 / Fold change vs veh, CNEP1R1 / RFU, BIVM-ERCC5 /// ERCC5 / Fold change vs veh, BIVM-ERCC5 /// ERCC5 / RFU, ILF3 / Fold change vs veh, ILF3 / RFU 11762660_at / Fold change /veh 11762660_at / RFU VCAN (11757783_s_at) / Fold change /veh VCAN (11757783_s_at) / RFU DDX43 (11728927_at) / Fold change /veh DDX43 (11728927_at) / RFU KRT8 (11758188_x_at) / Fold change /veh KRT8 (11758188_x_at) / RFU NKD1 (11759106_at) / Fold change /veh NKD1 (11759106_at) / RFU SRD5A1 (11742802_a_at) / Fold change /veh SRD5A1 (11742802_a_at) / RFU TPSAB1 /// TPSB2 (11721975_s_at) / Fold change /veh TPSAB1 /// TPSB2 (11721975_s_at) / RFU GSTM3 (11746129_a_at) / Fold change /veh GSTM3 (11746129_a_at) / RFU IL23R (11737362_x_at) / Fold change /veh IL23R (11737362_x_at) / RFU TMEM51 (11727254_a_at) / Fold change /veh TMEM51 (11727254_a_at) / RFU PIWIL2 (11732686_x_at) / Fold change /veh PIWIL2 (11732686_x_at) / RFU ORM1 (11744905_x_at) / Fold change /veh ORM1 (11744905_x_at) / RFU CCDC152 (11743942_at) / Fold change /veh CCDC152 (11743942_at) / RFU ECM1 (11717891_a_at) / Fold change /veh ECM1 (11717891_a_at) / RFU IL23R (11748794_a_at) / Fold change /veh IL23R (11748794_a_at) / RFU TNFAIP8L3 (11732012_x_at) / Fold change /veh TNFAIP8L3 (11732012_x_at) / RFU MBOAT4 (11741988_at) / Fold change /veh MBOAT4 (11741988_at) / RFU 11764193_at / Fold change /veh 11764193_at / RFU TMEM53 (11763286_at) / Fold change /veh TMEM53 (11763286_at) / RFU MAGEB2 (11727129_at) / Fold change /veh MAGEB2 (11727129_at) / RFU TMEM200A (11744735_a_at) / Fold change /veh TMEM200A (11744735_a_at) / RFU CCDC152 (11751479_a_at) / Fold change /veh CCDC152 (11751479_a_at) / RFU FAM211A (11726209_a_at) / Fold change /veh FAM211A (11726209_a_at) / RFU RGS16 (11746705_a_at) / Fold change /veh RGS16 (11746705_a_at) / RFU VCAN (11755009_s_at) / Fold change /veh VCAN (11755009_s_at) / RFU RHOB (11743442_s_at) / Fold change /veh RHOB (11743442_s_at) / RFU RGS16 (11720943_a_at) / Fold change /veh RGS16 (11720943_a_at) / RFU RGS16 (11720944_at) / Fold change /veh RGS16 (11720944_at) / RFU, VPS4B / Fold change vs veh, VPS4B / RFU, CREB1 / Fold change vs veh, CREB1 / RFU, DNAJC13 / Fold change vs veh, DNAJC13 / RFU, GNAQ / Fold change vs veh, GNAQ / RFU, CDK5R1 / Fold change vs veh, CDK5R1 / RFU, ZRANB3 / Fold change vs veh, ZRANB3 / RFU, CUL4A / Fold change vs veh, CUL4A / RFU, CCNY / Fold change vs veh, CCNY / RFU, UFL1 / Fold change vs veh, UFL1 / RFU, COG3 / Fold change vs veh, COG3 / RFU, DIAPH2 / Fold change vs veh, DIAPH2 / RFU, SKA2 / Fold change vs veh, SKA2 / RFU, AFF3 / Fold change vs veh, AFF3 / RFU, LMF1 / Fold change vs veh, LMF1 / RFU, IPO11 / Fold change vs veh, IPO11 / RFU, DFFB / Fold change vs veh, DFFB / RFU, FOXP1 / Fold change vs veh, FOXP1 / RFU, CARD8 / Fold change vs veh, CARD8 / RFU, STRN3 / Fold change vs veh, STRN3 / RFU, ADK / Fold change vs veh, ADK / RFU, RASSF2 / Fold change vs veh, RASSF2 / RFU, WIPF1 / Fold change vs veh, WIPF1 / RFU, LARP1B / Fold change vs veh, LARP1B / RFU, RASA1 / Fold change vs veh, RASA1 / RFU, RB1 / Fold change vs veh, RB1 / RFU, PPFIA1 / Fold change vs veh, PPFIA1 / RFU, MAT2A / Fold change vs veh, MAT2A / RFU, CCT5 / Fold change vs veh, CCT5 / RFU, WDR92 / Fold change vs veh, WDR92 / RFU, CUX1 / Fold change vs veh, CUX1 / RFU, TTC7A / Fold change vs veh, TTC7A / RFU, TMEM135 / Fold change vs veh, TMEM135 / RFU, DEPTOR / Fold change vs veh, DEPTOR / RFU, CPM / Fold change vs veh, CPM / RFU, DNAJB6 / Fold change vs veh, DNAJB6 / RFU, CACNA2D3 / Fold change vs veh, CACNA2D3 / RFU, DTX4 / Fold change vs veh, DTX4 / RFU, TFCP2 / Fold change vs veh, TFCP2 / RFU, GMCL1 /// GMCL1P1 / Fold change vs veh, GMCL1 /// GMCL1P1 / RFU, AEBP2 / Fold change vs veh, AEBP2 / RFU, SNHG1 /// SNORD22 /// SNORD25 /// SNORD26 /// SNORD27 /// SNORD28 /// SNORD29 /// SNORD31 / Fold change vs veh, SNHG1 /// SNORD22 /// SNORD25 /// SNORD26 /// SNORD27 /// SNORD28 /// SNORD29 /// SNORD31 / Fold change (Aza/veh), C12orf56 (ProbeSet 11735607_a_at) / Fold change (ACY-1035/veh), C12orf56 (ProbeSet 11735607_a_at) / Fold change (Aza/veh), FGFR1OP (ProbeSet 11751329_s_at) / Fold change (ACY-1035/veh), FGFR1OP (ProbeSet 11751329_s_at) / Fold change (Aza/veh), VPS36 (ProbeSet 11739960_a_at) / Fold change (ACY-1035/veh), VPS36 (ProbeSet 11739960_a_at) / RFU SYPL1 (11715823_x_at) / Fold change /veh SYPL1 (11715823_x_at) / RFU IGFBP7 (11715501_s_at) / Fold change /veh IGFBP7 (11715501_s_at) / RFU REEP3 (11722064_at) / Fold change /veh REEP3 (11722064_at) / RFU IGLL1 (11728026_x_at) / Fold change /veh IGLL1 (11728026_x_at): dose or concentration left out as unconfirmed
Conditions: MV-4-11 cells, 48 hours

Q: With Nc1ccc(-c2cccs2)cc1NC(=O)c1ccc2c(c1)cc(C1CC1)n2CCN1CCOCC1 [ACY-1035] as the compound, how does the “Fold change /veh SPTSSB (11747773_x_at)” value read?
A: 0.98
